Measured values reported in US9493468B2, “Antifungal 5,6-dihydro-4H-pyrrolo[1,2-a][1,4]benzo-diazepines and 6H-pyrrolo[1,2-a][1,4]benzodiazepines substituted with heterocyclic derivatives” (Janssen Pharmaceutica NV, priority 2011, dated 2016).

Columns and labels:
Type in all cases: cell-based
[1] = system: Cryptococcus neoformans; test: Antifungal activity in vitro, resazurin growth inhibition: Cryptococcus neoformans (B66663)
Method in brief: (§1)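 Broth microdilution: RPMI-1640/L-Gln/2% glucose, MOPS pH 7.0±0.1; 10^3 cfu/well; top concentration 64 μM, 2- or 4-fold steps. Dermatophytes at 27° C., one week or more. Resazurin 0.005% (w/v) added, fluorescence 550/590 nm.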

[2] = system: Trichophyton mentagrophytes; test: Antifungal activity in vitro, resazurin growth inhibition: Trichophyton mentagrophytes (B70554)
Method in brief: (§2)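 Resazurin conversion to fluorescent resorufin (ex 550/em 590 nm) served as the growth readout. Compounds spanned 2- or 4-fold serial dilutions with 64 μM top in-test concentration; inoculum 10^3 cfu per well in MOPS-buffered RPMI-1640 (pH 7.0, 2% glucose). Incubation species-dependent, dermatophytes at 27° C. for ≥1 week.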

[3] = system: Aspergillus fumigatus; test: Antifungal activity in vitro, resazurin growth inhibition: Aspergillus fumigatus (B42928)
Method in brief: as §1

[4] = system: Candida parapsilosis; test: Antifungal activity in vitro, resazurin growth inhibition: Candida parapsilosis (B66126)
Method in brief: as §1

[5] = system: Sporothrix schenkii; test: Antifungal activity in vitro, resazurin growth inhibition: Sporothrix schenkii (B62482)
Method in brief: as §1

[6] = system: Microsporum canis; test: Antifungal activity in vitro, resazurin growth inhibition: Microsporum canis (B68128)
Method in brief: as §2

[7] = system: Trichophyton rubrum; test: Antifungal activity in vitro, resazurin growth inhibition: Trichophyton rubrum (B68183)
Method in brief: as §2

Row | SMILES | Inf. F: Cryptococcus neoformans B66663, pIC50 [1] | Inf. G: Trichophyton mentagrophytes B70554, pIC50 [2] | Inf. E: Aspergillus fumigatus B42928, pIC50 [3] | Inf. D: Candida parapsilosis B66126, pIC50 [4] | Inf. A: Sporothrix schenkii B62482, pIC50 [5] | Inf. B: Microsporum canis B68128, pIC50 [6] | Inf. C: Trichophyton rubrum B68183, pIC50 [7]
1 | Cn1nc2ccc(C3=NCc4c(Cl)cc(Cl)cc4-n4cccc43)cc2n1 [Compound 109] | 4.34 | 4.37 | <4.19 | <4.19 | <4.19 | <4.19 | 5.70
2 | Clc1cc2oc(C3=NCc4c(Cl)cccc4-n4cccc43)cc2cn1 [Compound 159] | <4.49 | <4.49 | <4.49 | <4.49 | <4.49 | 6.41 | 6.46
3 | Clc1cccc2c1-n1cccc1C(c1ccc3scc(Cl)c3c1)=NC2 [Compound 179] | 4.67 | 4.69 | 4.49 | <4.19 | 4.41 | 4.80 | 5.03
4 | CCc1cnc(C2=NCc3c(Cl)cc(Cl)cc3-n3cccc32)s1 [Compound 67] | <4.19 | <4.19 | <4.19 | <4.19 | <4.19 | 4.50 | 4.71
5 | FC(F)(F)c1nc2cc(C3=NCc4c(Cl)cccc4-n4cccc43)ccc2s1 [Compound 193] | <4.19 | <4.19 | <4.19 | <4.19 | <4.19 | <4.19 | <4.19
6 | Cl.Fc1cccc2c1CNC(c1ccc(C(F)(F)F)nc1)c1cccn1-2 (racemic) [Compound 17] | 4.23 | <4.19 | <4.19 | <4.19 | <4.19 | 4.46 | 4.71
7 | Cn1nc2ccc(C3=NCc4c(Cl)cccc4-n4cccc43)cc2n1 [Compound 108] | <4.49 | 5.43 | <4.49 | <4.49 | <4.49 | 4.98 | 5.99
8 | FC(F)(F)c1ncc(C2=NCc3c(Cl)cc(Cl)cc3-n3cccc32)cn1 [Compound 104] | <4.19 | <4.19 | 5.54 | <4.19 | <4.19 | <4.19 | 5.91
9 | Cl.Clc1cc2oc(C3NCc4c(Cl)cccc4-n4cccc43)cc2cn1 (racemic) [Compound 51] | 4.45 | 4.94 | <4.19 | <4.19 | <4.19 | 5.40 | 5.63
10 | CCc1ccc(C2=NCc3c(ccc(Cl)c3Cl)-n3cccc32)cn1 [Compound 75] | <4.19 | <4.19 | <4.19 | <4.19 | <4.19 | 6.45 | <4.19
11 | CCn1cc(C2=NCc3c(Cl)cccc3-n3cccc32)cn1 [Compound 60] | <4.19 | 4.47 | 4.30 | <4.19 | <4.19 | 5.18 | 5.70
12 | Fc1cc(F)c2c(c1)-n1cccc1C(c1ccc3scnc3c1)=NC2 [Compound 190] | 4.93 | 5.31 | <4.19 | <4.19 | <4.19 | 5.56 | 6.14
13 | CCn1cc(C2=NCc3c(Cl)ccc(Cl)c3-n3cccc32)cn1 [Compound 61] | 4.44 | 4.39 | <4.19 | <4.19 | <4.19 | 4.66 | 4.52
14 | Fc1cc(F)c2c(c1)-n1cccc1C(c1ccc3occ(Cl)c3c1)=NC2 [Compound 154] | <4.19 | <4.19 | <4.19 | <4.19 | <4.19 | <4.19 | <4.19
15 | CCc1nc(C2=NCc3c(Cl)cccc3-n3cccc32)cs1 [Compound 64] | 4.70 | 5.94 | <4.19 | <4.19 | <4.19 | 5.42 | 5.46
16 | COc1cccc2cc(C3=NCc4cccc(Cl)c4-n4cccc43)oc12 [Compound 143] | 5.20 | <4.19 | <4.19 | <4.19 | 5.49 | <4.19 | 6.11
17 | Cl.FC(F)(F)c1ccc(C2NCc3c(Cl)cccc3-n3cccc32)cn1 (racemic) [Compound 16] | 4.64 | 5.28 | <4.19 | <4.19 | <4.19 | 5.19 | 5.69
18 | Cl.FC(F)(F)c1ccc(C2NCc3c(Cl)cc(Cl)cc3-n3cccc32)cn1 (racemic) [Compound 19] | 5.02 | 4.57 | <4.19 | <4.19 | <4.19 | 4.95 | 5.65
19 | Cc1ccc2oc(C3=NCc4c(Cl)cc(Cl)cc4-n4cccc43)cc2c1 [Compound 136] | <4.19 | <4.19 | <4.19 | <4.19 | <4.19 | 4.41 | 5.67
